{"source": "patent US5625043A", "about": "“Anthracyclines with unusually high activity against cells resistant to doxorubicin and its analogs” (Priebe; Waldemar, priority 1995, dated 1997)", "key": {"[1]": {"test_system": "transplanted MDR L1210 cells", "settings": "cited from earlier work"}, "RNA versus DNA synthesis": {"test_system": "RNA versus DNA synthesis", "settings": "compared with anthracycline; cited from earlier work"}, "[2]": {"test_system": "cultured murine and human tumor cells", "settings": "compared with anthracycline; cited from earlier work"}, "[3]": {"test_system": "P388 and L1210 leukemic cells and B16-BL6 melanoma cells", "settings": "cited from earlier work"}, "J774.2 cells": {"test_system": "J774.2 cells", "assay": "Cytotoxicity against J774.2 cells", "format": "cell-based, murine", "settings": "Mus musculus, J774.2; read-out: ID50 (the source's name)"}, "[4]": {"test_system": "purified mammalian topoisomerase II", "settings": "cited from earlier work"}, "P-gp": {"test_system": "P-gp", "settings": "not told; cited from earlier work"}, "AD 198^R cells": {"test_system": "AD 198^R cells", "settings": "AD 198^R cells versus drug-sensitive cells; cited from earlier work"}, "[5]": {"test_system": "MDR J774.2 cells selected with vinblastine", "settings": "MDR J774.2 selected with vinblastine; cited from earlier work"}, "[6]": {"test_system": "variant CCRF-CEM leukemic cells", "settings": "cited from earlier work"}, "DNA": {"test_system": "DNA", "settings": "alkaline elution assays; cited from earlier work"}, "membrane": {"test_system": "membrane", "settings": "compared with anthracycline; cited from earlier work"}, "J7/40V cells": {"test_system": "J7/40V cells", "assay": "Cytotoxicity against vinblastine-resistant J7/40V cells", "format": "cell-based, murine"}, "purified DNA": {"test_system": "purified DNA", "settings": "compared with anthracycline; cited from earlier work"}, "G2/M blockade": {"test_system": "G2/M blockade", "settings": "compared with anthracycline; cited from earlier work"}, "J7/A300 cells": {"test_system": "J7/A300 cells", "assay": "Cytotoxicity against AD 198-resistant J7/A300 cells", "format": "cell-based, murine"}}, "data": [{"compound": "CCCCC(=O)OCC(=O)[C@]1(O)Cc2c(O)c3c(c(O)c2[C@@H](O[C@H]2C[C@H](NCc4ccccc4)[C@H](O)[C@H](C)O2)C1)C(=O)c1c(OC)cccc1C3=O", "note": "[AD 198]", "values": [{"measurement": "efficacy in vivo", "setting": "[1]", "result": "limited efficacy"}, {"measurement": "inhibition of RNA versus DNA synthesis", "setting": "RNA versus DNA synthesis", "result": "preferential inhibition of RNA versus DNA synthesis"}, {"measurement": "cytotoxicity", "setting": "[2]", "result": "enhanced cytotoxicity"}, {"measurement": "ability to circumvent MDR", "setting": "[3]", "result": "ability to circumvent MDR"}, {"measurement": "IC50", "setting": "J774.2 cells", "result": 49, "unit": "nM"}, {"measurement": "inhibition of purified mammalian topoisomerase II", "setting": "[4]", "result": "lack of inhibition"}, {"measurement": "transport by P-gp from the cell", "setting": "P-gp", "result": "inability of P-gp to transport AD 198 from the cell"}, {"measurement": "intracellular level of AD 198", "setting": "AD 198^R cells", "result": "high levels of intracellular AD 198 similar to that of drug-sensitive cells"}, {"measurement": "cross-resistance", "setting": "[5]", "result": "cross-resistant to AD 198"}, {"measurement": "ability to circumvent MDR and resistance due to altered topoisomerase II activity", "setting": "[6]", "result": "ability to circumvent MDR"}, {"measurement": "protein-associated DNA strand breaks", "setting": "DNA", "result": "significant levels of protein-associated DNA strand breaks"}, {"measurement": "membrane lytic activity", "setting": "membrane", "result": "pronounced membrane lytic activity"}, {"measurement": "RI J7/40V", "setting": "J7/40V cells; J7/40V versus J774.2", "result": 14}, {"measurement": "IC50", "setting": "J7/40V cells; Mus musculus, J7/40V, read-out: ID50 (the source's name)", "result": 663, "unit": "nM"}, {"measurement": "binding to purified DNA", "setting": "purified DNA", "result": "weaker binding to purified DNA"}, {"measurement": "G2/M blockade", "setting": "G2/M blockade", "result": "irreversible G2 /M blockade"}, {"measurement": "resistance of cell line to the selecting drug", "setting": "J7/A300 cells; AD 198 resistant J7/A300 cells", "result": "15 -fold"}, {"measurement": "RI J7/A300", "setting": "J7/A300 cells; J7/A300 versus J774.2", "result": 15}, {"measurement": "IC50", "setting": "J7/A300 cells; Mus musculus, J7/A300, read-out: ID50 (the source's name)", "result": 748, "unit": "nM"}]}]}
